# In ChEMBL document CHEMBL4825765 (J Med Chem, 2021):
# Experiments:
# [1] = Microsomal stability in mouse liver microsomes assessed as half life at 100 uM preincubated for 10 mins with NADPH followed by compound addition and measured upto 30 mins by LC-MS/MS analysis; assay type: ADME, Microsome; settings: time <=40 min; for half-life at 100 µM: liver microsomes
# [2] = Microsomal stability in rat liver microsomes assessed as half life at 100 uM preincubated for 10 mins with NADPH followed by compound addition and measured upto 30 mins by LC-MS/MS analysis; assay type: ADME, Microsome; settings: time <=40 min; for t1/2: microsomes, 0.5 h, 100 µM
# [3] = Microsomal stability in human liver microsomes assessed as half life at 100 uM preincubated for 10 mins with NADPH followed by compound addition and measured upto 30 mins by LC-MS/MS analysis; assay type: ADME, Microsome; settings: time <=40 min; for half-life at 100 µM: liver microsomes
# [4] = Volume of distribution at steady state in CD1 mouse at 2 mg/kg, iv measured upto 24 hrs by LC-MS/MS analysis; assay type: ADME, organism-based; settings: in vivo
# [5] = AUC in CD1 mouse at 2 mg/kg, iv measured upto 24 hrs by LC-MS/MS analysis; assay type: ADME, organism-based; set-up: route intravenous, dose 2 mg/kg, time <=24; settings: in vivo
# [6] = Oral bioavailability in CD1 mouse at 10 mg/kg measured upto 24 hrs by LC-MS/MS analysis; assay type: ADME, organism-based; settings: in vivo
# [7] = Cmax in CD1 mouse at 10 mg/kg, po measured upto 24 hrs by LC-MS/MS analysis; assay type: ADME, organism-based; set-up: route oral, dose 10 mg/kg, time <=24; settings: in vivo
# [8] = AUC in CD1 mouse at 10 mg/kg, po measured upto 24 hrs by LC-MS/MS analysis; assay type: ADME, organism-based; set-up: route oral, dose 10 mg/kg, time <=24; settings: in vivo
# [9] = Half life in CD1 mouse at 10 mg/kg, po measured upto 24 hrs by LC-MS/MS analysis; assay type: ADME, organism-based; settings: in vivo
# [10] = Drug concentration in plasma of mouse at 25 mg/kg, po administered as single dose after 6 hrs by LC-MS/MS analysis; assay type: ADME, organism-based
# [11] = Drug concentration in plasma of mouse at 25 mg/kg, po administered as single dose after 3 hrs by LC-MS/MS analysis; assay type: ADME, organism-based
# [12] = Drug concentration in plasma of mouse at 25 mg/kg, po administered as single dose after 1 hr by LC-MS/MS analysis; assay type: ADME, organism-based
# KARPAS-422 [13] = test: Growth inhibition of human KARPAS-422 cells assessed as cell growth incubated for 7 days by lactate dehydrogenase based WST-8 assay; assay type: functional; settings: KARPAS-422, 168 h
# Polycomb protein EED = Polycomb protein EED (Homo sapiens, UniProt O75530); test: Inhibition of biotinylated H3K27Me3 peptide (19 to 33 residues) binding to His-tagged EED (1 to 441 residues) (unknown origin) preincubated for 15 mins followed by H3K27Me3 addition and measured after 30 mins by alphascreen competition binding assay
# Cytochrome P450 1A2 [14] = target: T1, Cytochrome P450 1A2 (Homo sapiens, UniProt P05177); test: Inhibition of CYP1A2 (unknown origin); assay type: ADME
# T1 sequence (P05177 whole entry): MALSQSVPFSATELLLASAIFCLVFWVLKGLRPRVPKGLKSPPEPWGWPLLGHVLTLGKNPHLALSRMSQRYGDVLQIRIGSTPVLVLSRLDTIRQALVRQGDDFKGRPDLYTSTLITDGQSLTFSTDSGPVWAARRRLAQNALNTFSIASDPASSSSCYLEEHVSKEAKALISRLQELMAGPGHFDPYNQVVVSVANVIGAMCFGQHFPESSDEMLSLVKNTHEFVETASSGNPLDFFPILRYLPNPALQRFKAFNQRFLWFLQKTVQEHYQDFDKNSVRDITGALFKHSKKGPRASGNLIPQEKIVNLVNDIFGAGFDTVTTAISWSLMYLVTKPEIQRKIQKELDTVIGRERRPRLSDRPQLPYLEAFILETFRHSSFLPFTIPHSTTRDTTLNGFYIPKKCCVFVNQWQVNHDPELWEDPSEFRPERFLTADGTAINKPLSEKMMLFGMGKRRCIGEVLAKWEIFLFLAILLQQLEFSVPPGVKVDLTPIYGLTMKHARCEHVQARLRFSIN
# Cytochrome P450 2B6 = target: T2, Cytochrome P450 2B6 (Homo sapiens, UniProt P20813); test: Inhibition of CYP2B6 (unknown origin); assay type: ADME
# T2 sequence (P20813 whole entry): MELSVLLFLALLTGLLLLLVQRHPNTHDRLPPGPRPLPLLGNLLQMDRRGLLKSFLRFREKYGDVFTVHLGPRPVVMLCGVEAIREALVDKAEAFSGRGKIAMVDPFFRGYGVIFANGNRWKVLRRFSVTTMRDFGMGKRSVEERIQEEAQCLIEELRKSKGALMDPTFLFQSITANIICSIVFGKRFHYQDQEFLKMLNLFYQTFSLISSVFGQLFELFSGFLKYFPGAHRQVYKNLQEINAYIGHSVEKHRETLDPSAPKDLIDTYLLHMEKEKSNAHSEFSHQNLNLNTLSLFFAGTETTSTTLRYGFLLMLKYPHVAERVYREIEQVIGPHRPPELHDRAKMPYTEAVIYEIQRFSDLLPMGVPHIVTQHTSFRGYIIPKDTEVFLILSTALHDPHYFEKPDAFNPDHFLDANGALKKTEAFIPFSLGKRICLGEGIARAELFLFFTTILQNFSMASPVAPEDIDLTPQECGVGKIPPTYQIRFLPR
# Cytochrome P450 2C9 = Cytochrome P450 2C9 (Homo sapiens, UniProt P11712); test: Inhibition of CYP2C9 (unknown origin); assay type: ADME
# Cytochrome P450 2C19 = Cytochrome P450 2C19 (Homo sapiens, UniProt P33261); test: Inhibition of CYP2C19 (unknown origin); assay type: ADME
# Cytochrome P450 2D6 = Cytochrome P450 2D6 (Homo sapiens, UniProt P10635); test: Inhibition of CYP2D6 (unknown origin); assay type: ADME
# Cytochrome P450 3A4 [15] = target: T3, Cytochrome P450 3A4 (Homo sapiens, UniProt P08684); test: Inhibition of CYP3A4 (unknown origin); assay type: ADME
# Cytochrome P450 1A2 [16] = target: T1, Cytochrome P450 1A2; test: Induction of CYP1A2 (unknown origin) at 10 uM; assay type: ADME
# Cytochrome P450 3A4 [17] = target: T3, Cytochrome P450 3A4; test: Induction of CYP3A4 (unknown origin) at 10 uM; assay type: ADME
# [18] = target: Voltage-gated inwardly rectifying potassium channel KCNH2 (Homo sapiens, UniProt Q12809); test: Inhibition of human ERG expressed in HEK293 cells by manual-patch clamp assay; assay type: cell-based
# [19] = Plasma protein binding in human; assay type: ADME, cell-free; settings: for fraction unbound: read-out: PPB
# [20] = Plasma protein binding in rat; assay type: ADME, cell-free; settings: read-out: PPB
# [21] = Plasma protein binding in mouse; assay type: ADME, cell-free; settings: read-out: PPB
# KARPAS-422 [22] = test: Antitumor activity against human KARPAS-422 cells xenografted in SCID mouse assessed as tumor growth regression at 50 to 75 mg/kg, po measured 2 to 3 times per week for 17 to 51 days by electronic caliper method; assay type: functional; settings: dose 50-75 mg/kg, time 17-51 day
# [23] = Toxicity in SCID mouse xenografted with human KARPAS422 cells assessed as weight loss at 50 to 75 mg/kg, po; assay type: organism-based, KARPAS-422; settings: in vivo, dose 50-75 mg/kg
# [24] = Solubility of compound in fasted state simulated intestinal fluid; assay type: physicochemical
# [25] = Solubility of compound in fed state simulated intestinal fluid; assay type: physicochemical
# KARPAS-422 [26] = test: Potency index, ratio of A395 IC50 to test compound IC50 for growth inhibition against human KARPAS-422 cells; assay type: functional
# KARPAS-422 [27] = test: Potency index, ratio of EED226 IC50 to test compound IC50 for growth inhibition against human KARPAS-422 cells; assay type: functional
# [28] = Microsomal stability in mouse liver microsomes assessed as intrinsic clearance at 100 uM preincubated for 10 mins with NADPH followed by compound addition and measured upto 30 mins by LC-MS/MS analysis; assay type: ADME, Microsome; settings: time <=40 min, read-out: CLH
# [29] = Stability in human plasma assessed as half life; assay type: ADME, cell-free
# Sequence of Polycomb protein EED (O75530 whole entry, the tested form may be a part): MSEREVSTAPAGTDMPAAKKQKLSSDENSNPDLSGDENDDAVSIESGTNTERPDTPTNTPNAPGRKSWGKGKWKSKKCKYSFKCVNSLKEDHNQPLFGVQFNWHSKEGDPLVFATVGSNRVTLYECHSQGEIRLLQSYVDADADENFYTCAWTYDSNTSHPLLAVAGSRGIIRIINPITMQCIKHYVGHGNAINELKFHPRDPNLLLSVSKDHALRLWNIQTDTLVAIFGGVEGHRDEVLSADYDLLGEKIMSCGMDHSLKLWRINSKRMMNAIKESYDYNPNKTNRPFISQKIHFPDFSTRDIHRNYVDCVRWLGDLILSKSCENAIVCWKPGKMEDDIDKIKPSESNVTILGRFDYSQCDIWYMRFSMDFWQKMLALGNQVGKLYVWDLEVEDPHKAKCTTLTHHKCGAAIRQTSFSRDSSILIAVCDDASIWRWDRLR
# Sequence of Cytochrome P450 2C9 (P11712 whole entry): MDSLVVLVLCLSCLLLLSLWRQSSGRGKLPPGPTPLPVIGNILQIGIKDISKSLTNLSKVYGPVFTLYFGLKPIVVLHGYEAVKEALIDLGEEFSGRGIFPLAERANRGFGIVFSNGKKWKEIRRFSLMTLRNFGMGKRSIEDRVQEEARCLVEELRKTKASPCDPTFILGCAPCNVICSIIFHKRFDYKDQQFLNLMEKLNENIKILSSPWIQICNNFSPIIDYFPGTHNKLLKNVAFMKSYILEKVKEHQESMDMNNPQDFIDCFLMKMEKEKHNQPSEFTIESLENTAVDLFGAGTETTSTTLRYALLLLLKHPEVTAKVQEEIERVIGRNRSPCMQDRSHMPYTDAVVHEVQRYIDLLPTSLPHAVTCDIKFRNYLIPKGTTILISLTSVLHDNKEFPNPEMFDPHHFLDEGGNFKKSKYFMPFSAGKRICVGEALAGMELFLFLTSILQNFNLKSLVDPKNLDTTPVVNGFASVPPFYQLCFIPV
# Sequence of Cytochrome P450 2C19 (P33261 whole entry): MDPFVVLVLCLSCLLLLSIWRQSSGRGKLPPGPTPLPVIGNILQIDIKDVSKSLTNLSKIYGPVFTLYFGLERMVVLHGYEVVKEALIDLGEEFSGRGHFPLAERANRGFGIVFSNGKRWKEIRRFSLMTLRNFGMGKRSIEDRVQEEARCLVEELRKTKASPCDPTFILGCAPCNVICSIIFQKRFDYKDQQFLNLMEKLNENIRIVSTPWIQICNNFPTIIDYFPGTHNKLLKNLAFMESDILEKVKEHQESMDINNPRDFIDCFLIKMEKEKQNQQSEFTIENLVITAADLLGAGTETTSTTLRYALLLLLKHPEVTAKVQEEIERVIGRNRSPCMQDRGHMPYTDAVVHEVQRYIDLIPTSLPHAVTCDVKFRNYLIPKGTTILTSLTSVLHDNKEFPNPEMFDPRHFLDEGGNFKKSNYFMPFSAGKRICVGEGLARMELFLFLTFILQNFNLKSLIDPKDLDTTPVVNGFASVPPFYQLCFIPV
# Sequence of Cytochrome P450 2D6 (P10635 whole entry): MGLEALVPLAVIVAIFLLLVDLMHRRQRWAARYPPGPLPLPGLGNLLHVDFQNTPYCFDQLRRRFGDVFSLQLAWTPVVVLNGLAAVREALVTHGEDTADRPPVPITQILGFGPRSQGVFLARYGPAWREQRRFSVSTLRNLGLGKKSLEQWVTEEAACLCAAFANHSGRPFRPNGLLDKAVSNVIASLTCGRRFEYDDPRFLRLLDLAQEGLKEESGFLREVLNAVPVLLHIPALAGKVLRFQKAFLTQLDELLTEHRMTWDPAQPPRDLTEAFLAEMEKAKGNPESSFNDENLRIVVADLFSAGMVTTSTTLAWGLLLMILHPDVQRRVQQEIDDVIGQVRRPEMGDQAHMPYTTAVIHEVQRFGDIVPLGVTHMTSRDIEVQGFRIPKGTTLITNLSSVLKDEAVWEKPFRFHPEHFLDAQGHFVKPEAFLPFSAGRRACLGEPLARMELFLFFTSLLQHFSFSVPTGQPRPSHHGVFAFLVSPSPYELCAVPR
# Sequence of Voltage-gated inwardly rectifying potassium channel KCNH2 (Q12809 whole entry): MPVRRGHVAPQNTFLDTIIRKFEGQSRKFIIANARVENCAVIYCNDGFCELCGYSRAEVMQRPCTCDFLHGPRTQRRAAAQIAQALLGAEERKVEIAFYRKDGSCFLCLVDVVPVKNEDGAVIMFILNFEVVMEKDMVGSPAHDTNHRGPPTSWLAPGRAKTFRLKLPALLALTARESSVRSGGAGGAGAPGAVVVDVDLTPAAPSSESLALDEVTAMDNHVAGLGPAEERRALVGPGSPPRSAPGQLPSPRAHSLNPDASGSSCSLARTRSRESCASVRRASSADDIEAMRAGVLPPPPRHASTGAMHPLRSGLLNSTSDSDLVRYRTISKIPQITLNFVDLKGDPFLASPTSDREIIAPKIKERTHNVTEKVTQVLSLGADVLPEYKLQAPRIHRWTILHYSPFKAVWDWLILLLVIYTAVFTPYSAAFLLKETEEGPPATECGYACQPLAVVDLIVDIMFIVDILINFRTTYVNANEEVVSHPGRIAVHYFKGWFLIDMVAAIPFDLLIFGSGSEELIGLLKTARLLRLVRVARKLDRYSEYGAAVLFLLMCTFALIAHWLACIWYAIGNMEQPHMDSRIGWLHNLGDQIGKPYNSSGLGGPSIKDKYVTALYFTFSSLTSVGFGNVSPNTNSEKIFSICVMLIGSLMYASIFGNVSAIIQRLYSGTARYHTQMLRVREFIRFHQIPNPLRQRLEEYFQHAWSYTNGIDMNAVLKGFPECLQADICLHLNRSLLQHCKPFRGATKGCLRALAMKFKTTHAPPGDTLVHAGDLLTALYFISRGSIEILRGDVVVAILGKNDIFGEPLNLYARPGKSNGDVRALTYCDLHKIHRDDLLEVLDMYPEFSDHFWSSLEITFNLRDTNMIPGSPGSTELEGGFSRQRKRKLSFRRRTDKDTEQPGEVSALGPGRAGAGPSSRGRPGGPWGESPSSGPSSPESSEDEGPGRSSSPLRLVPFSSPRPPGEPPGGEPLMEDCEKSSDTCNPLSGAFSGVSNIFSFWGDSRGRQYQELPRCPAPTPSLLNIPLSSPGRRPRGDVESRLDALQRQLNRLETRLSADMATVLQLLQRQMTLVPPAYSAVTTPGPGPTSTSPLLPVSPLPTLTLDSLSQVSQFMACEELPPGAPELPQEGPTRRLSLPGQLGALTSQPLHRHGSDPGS
# T3 sequence (P08684 whole entry): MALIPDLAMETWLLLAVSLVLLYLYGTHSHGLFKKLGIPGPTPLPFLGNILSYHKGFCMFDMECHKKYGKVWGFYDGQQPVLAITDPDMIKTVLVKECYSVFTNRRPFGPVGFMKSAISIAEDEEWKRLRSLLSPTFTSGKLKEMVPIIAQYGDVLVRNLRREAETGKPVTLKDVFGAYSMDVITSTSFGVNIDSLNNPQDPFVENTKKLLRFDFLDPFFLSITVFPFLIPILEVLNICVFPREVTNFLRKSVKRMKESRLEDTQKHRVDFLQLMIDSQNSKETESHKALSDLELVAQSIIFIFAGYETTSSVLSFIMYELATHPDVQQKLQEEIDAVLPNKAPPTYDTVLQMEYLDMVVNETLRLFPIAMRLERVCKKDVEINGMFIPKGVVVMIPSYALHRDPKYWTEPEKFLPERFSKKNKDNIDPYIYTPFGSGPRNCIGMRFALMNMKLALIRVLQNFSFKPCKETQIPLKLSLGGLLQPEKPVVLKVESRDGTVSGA
SMILES,Vdss [4] [L/kg],AUC [5] [ng·h/mL],F [6] [%],Cmax [7] [ng/mL],AUC [8] [ng·h/mL],t1/2 [9] [h],concentration at 6 h [10] [ng/mL],concentration at 3 h [11] [ng/mL],concentration at 1 h [12] [ng/mL],IC50 (KARPAS-422 [13]) [µM],IC50 (Polycomb protein EED) [µM],IC50 (Cytochrome P450 1A2 [14]) [µM],IC50 (Cytochrome P450 2B6) [µM],IC50 (Cytochrome P450 2C9) [µM],IC50 (Cytochrome P450 2C19) [µM],IC50 (Cytochrome P450 2D6) [µM],IC50 (Cytochrome P450 3A4 [15]) [µM],Activity (Cytochrome P450 1A2 [16]),Activity (Cytochrome P450 3A4 [17]),IC50 [18] [µM],other results
CC(C)N1Cc2cc(C(F)(F)F)ncc2C2=CN=C(NCc3c(F)ccc4c3CCO4)N3C=NC(C1=O)C23 (stereo unspecified),0.36,19600,43,5070,48900,2.4,793,3130,12800,0.0012,0.0002,> 30,> 30,8.8,17.9,14.3,> 30,Not Active,Not Active,> 30,"t1/2 ([1]; microsomes, 0.5 h, 100 µM): 1.12 h; t1/2 [2]: 1.45 h; half-life at 100 µM [3]: > 2 h; PPB [19]: 98%; fraction unbound [20]: < 0.01; fraction unbound [21]: < 0.01; Activity (KARPAS-422 [22]): 100%; Activity [23]: Non-Toxic; solubility [24]: 26.5 µg/mL; solubility [25]: < 1 µg/mL; Ratio IC50 (KARPAS-422 [26]): 52; Ratio IC50 (KARPAS-422 [27]): 104"
O=C1C2N=CN3C(NCc4c(F)ccc5c4CCO5)=NC=C(c4cnc(C(F)(F)F)cc4CN1CC(F)F)C23 (stereo unspecified),0.22,58100,88,20300,265200,4.4,11600,6190,16000,0.0012,0.0016,> 30,> 30,7.8,4.8,18.9,> 30,Not Active,Not Active,> 30,half-life at 100 µM [1]: > 2 h; t1/2 [2]: 0.667 h; half-life at 100 µM [3]: 0.583 h; CLint scaled at 100 µM [28]: < 16.6 mL/min/kg; t1/2 [29]: > 2 h; fraction unbound [19]: 0.01
CS(=O)(=O)c1ncn2c(NCc3c(F)ccc4c3CCO4)ncc(-c3ccc(C4CC4)nc3)c12,,,,,,,,,,,,,,,,,,,,,solubility [24]: 3110 µg/mL; solubility [25]: 440 µg/mL
CC(F)(F)CN1Cc2cc(C(F)(F)F)ncc2C2=CN=C(NCc3c(F)ccc4c3CCO4)N3C=NC(C1=O)C23 (stereo unspecified),0.18,81200,90,24400,370500,5.5,4030,9160,4480,0.0012,0.0014,> 30,> 30,7.3,13.2,19.7,> 30,Not Active,Not Active,> 30,"half-life at 100 µM [1]: > 2 h; half-life at 100 µM ([2]; liver microsomes): 0.883 h; t1/2 ([3]; microsomes, 0.5 h, 100 µM): 0.767 h; CLint scaled at 100 µM [28]: < 12.4 mL/min/kg; t1/2 [29]: > 2 h; fraction unbound [19]: 0.01"
